Source: patent US20250082633A1, “COMPOUNDS AND METHODS FOR MODULATING SPLICING” (REMIX THERAPEUTICS INC., priority 2021, published 2025)
Like-named read-outs stand apart in the source and are kept apart here.

Experiments:
Format in all cases: cell-based
HTT mRNA = assay: RT-qPCR splicing assay, HTT canonical (CJ) and alternative (AJ) junction mRNA; conditions: Homo sapiens; for IC50: read-out: HTT CJ IC50; for AC50: increase in alternative junction mRNA, read-out: HTT AJ AC50
Procedure: (§1) Compounds described herein were used to modulate RNA transcript abundance in cells. The expression of a target mRNA was measured by detecting the formation of an exon-exon junction in the canonical transcript (CJ). A compound mediated exon-inclusion event was detected by observing an increase in formation of a new junction with an alternative exon (AJ). Real-time qPCR assays were used to detect these splicing switches and interrogate the potency of various compounds towards different target genes. A high-throughput real time quantitative PCR (RT-qPCR) assay was developed to measure these two isoforms of the mRNA (CJ and AJ) for exemplary genes, such as HTT, SMN2, and MYB, together with a control housekeeping gene, GAPDH or GUSB or PPIA, used for normalization. Briefly, the A673 or K562 cell line was treated with various compounds described herein (e.g., compounds of Formula (I)). After treatment, the levels of the HTT, MYB, or SMN2 mRNA targets were determined from each sample of cell lysate by cDNA synthesis followed by qPCR.
(§2) • Cells-to-CT 1-step kit: ThermoFisher A25602, Cells-to-CT lysis reagent: ThermoFisher 4391851C, TaqMan™ Fast Virus 1-Step Master Mix: ThermoFisher 4444436 • GAPDH: VIC-PL, ThermoFisher 4326317E (Assay: Hs99999905_m1)—used for K562/suspension cell lines • GUSB: VIC-PL, ThermoFisher 4326320E (Assay: Hs99999908_m1)—used for K562/suspension cell lines • PPIA: VIC-PL, ThermoFisher 4326316E (Assay: Hs99999904_m1)—used for A673/adherent cell lines
(§3) The A673 cell line was cultured in DMEM with 10% FBS. Cells were diluted with full growth media and plated in a 96-well plate (15,000 cells in 100 ul media per well). The plate was incubated at 37° C. with 5% CO2 for 24 hours to allow cells to adhere. An 11-point 3-fold serial dilution of the compounds was made in DMSO then diluted in media in an intermediate plate. Compounds were transferred from the intermediate plate to the cell plate with the top dose at a final concentration of 10 uM in the well. Final DMSO concentration was kept at or below 0.25%. The cell plate was returned to the incubator at 37° C. with 5% CO2 for an additional 24 hours.
(§4) The K562 cell line was cultured in IMDM with 10% FBS. For K562, cells were diluted with full growth media and plated in either a 96-well plate (50,000 cells in 50 uL media per well) or a 384-well plate (8,000-40,000 cells in 45 uL media per well). An 11-point 3-fold serial dilution of the compounds were made in DMSO then diluted in media in an intermediate plate. Compound was transferred from the intermediate plate to the cell plate with the top dose at a final concentration of 10 uM in the well. Final DMSO concentration was kept at or below 0.25%. Final volume was 100 uL for 96-well plate and 50 uL for 384-well plate. The cell plate was then placed in an incubator at 37° C. with 5% CO2 for 24 hours.
(§5) The cells were then gently washed with 50 uL-100 uL cold PBS before proceeding to addition of lysis buffer. 30 uL-50 μL of room temperature lysis buffer with DNAse I (and optionally RNAsin) was added to each well. Cells were shaken/mixed thoroughly at room temperature for 5-10 minutes for lysis to take place and then 3 uL-5 μL of room temperature stop solution was added and wells were shaken/mixed again. After 2-5 minutes, the cell lysate plate was transferred to ice for RT-qPCR reaction setup. The lysates could also be frozen at −80° C. for later use.
(§6) In some cases, a direct lysis buffer was used. An appropriate volume of 3× lysis buffer (10 mM Tris, 150 mM NaCl, 1.5%-2.5% Igepal and 0.1-1 U/uL RNAsin, pH 7.4) was directly added to either K562 or A673 cells in media and mixed by pipetting 3 times. The plates were then incubated at room temperature with shaking/rocking for 20-50 minutes to allow for lysis to take place. After this time, the cell lysate plate was transferred to ice to set up for the RT-qPCR reactions. The lysates could also be frozen at −80° C. for later use. […]

MYB mRNA = assay: RT-qPCR splicing assay, MYB canonical (CJ) and alternative (AJ) junction mRNA; conditions: Homo sapiens; for IC50: read-out: MYB CJ IC50; for AC50: increase in alternative junction mRNA, read-out: MYB AJ AC50
Procedure: as §1, §2, §3, §4, §5, §6

Target C = assay: RT-qPCR splicing assay, gene panel, Target C canonical junction (CJ) mRNA; conditions: Homo sapiens; decrease in CJ mRNA levels; larger panel of genes; Table 3; read-out: Target C CJ IC50
Procedure: as §1, §3, §4, §5
(§7) In some cases, a direct lysis buffer was used. An appropriate volume of 3× lysis buffer (10 mM Tris, 150 mM NaCl, 1.5%-2.5% Igepal and 0.1-1 U/uL RNAsin, pH 7.4) was directly added to either K562 or A673 cells in media and mixed by pipetting 3 times. The plates were then incubated at room temperature with shaking/rocking for 20-50 minutes to allow for lysis to take place. After this time, the cell lysate plate was transferred to ice to set up for the RT-qPCR reactions. The lysates could also be frozen at −80° C. for later use.
(§8) To set up 10 uL RT-qPCR reactions, cell lysates were transferred to 384-well qPCR plates containing the master mix according to the table below. The plates were sealed, gently vortexed, and spun down before the run. The volumes were adjusted accordingly in some instances where the reaction was carried in 20 μL. The table below summarizes the components of the RT-qPCR reactions:
(§9) The RT-qPCR reaction was performed using a QuantStudio (ThermoFisher) under the following fast cycling conditions. […]

SMN2 mRNA = assay: RT-qPCR splicing assay, gene panel, SMN2 canonical junction (CJ) mRNA; conditions: Homo sapiens; decrease in CJ mRNA levels; larger panel of genes; Table 3; read-out: SMN2 CJ IC50
Procedure: as §1, §3, §4, §5, §7, §8, §9

K562 cells = assay: Cell Titer Glo 2.0 cell viability assay; conditions: Homo sapiens, 500 cells/well, 72 hours
Procedure: Compounds described herein were screened for toxicity in K562 (human chronic myelogenous leukemia) and SH-SY5Y (human neuroblastoma) cells using a Cell Titer Glo 2.0 assay. • Promega CellTiter-Glo® 2.0 Cell Viability Assay (cat #G9241) • Corning 384-well TC-treated microplates (cat #3570) Cells were plated at 500 cells/well (K562 cells) in 45 μL of IMDM supplemented with 10% FBS in a 384-well opaque plate. Wells containing only medium were used as a blank control. Test compounds (e.g., compounds of Formula (I), (II), or (III)) were first serially diluted in DMSO then diluted 1:100 with IMDM+10% FBS. The final concentration of DMSO was 0.1% in each well. The cells were incubated for 72 hours at 37° C. and 5% CO2 before assaying with Cell Titer Glo 2.0 reagent.

[1] = decrease in CJ mRNA levels, larger panel of genes, Table 3
[2] = decrease in canonical junction mRNA, A673 or K562 cells, 24 hours treatment, Table 2
[3] = A673 or K562 cells, 24 hours treatment, Table 2

| SMILES | IC50 (HTT mRNA; [1]) [nM] | IC50 (HTT mRNA; [2]) [nM] | AC50 (HTT mRNA; [3]) [nM] | IC50 (MYB mRNA; [1]) [nM] | IC50 (MYB mRNA; [2]) [nM] | AC50 (MYB mRNA; [3]) [nM] | IC50 (Target C) [nM] | IC50 (SMN2 mRNA) [nM] | GI50 (K562 cells) [nM] |
| --- | --- | --- | --- | --- | --- | --- | --- | --- | --- |
| Cc1cn2nc(-c3cc(F)c4nn(C5CCNC6(CC6)C5)cc4c3)cc2c(C)n1 (stereo in doubt) [Compound 205, 2-[2-[(7S)-4-azaspiro[2.5]octan-7-yl]-7-fluoro-indazol-5-yl]-4,6-dimethyl-pyrazolo[1,5-a]pyrazine] | 100 to 1000 | 100 to 1000 | 100 to 1000 | 1000 to 10000 | 1000 to 10000 | 100 to 1000 | 1000 to 10000 | 100 to 1000 | 1000 to 10000 |
| Cc1cn2nc(-c3cc(F)c4nn(C5CCN(C(C)(C)C)CC5)cc4c3)cc(C)c2n1 [Compound 207, 2-(1-tert-butylpiperidin-4-yl)-5-{2,8-dimethylimidazo[1,2-b]pyridazin-6-yl}-7-fluoroindazole] | 100 to 1000 | 100 to 1000 | 100 to 1000 | 100 to 1000 | 100 to 1000 | 100 to 1000 | 1000 to 10000 | < 100 |  |
| Cc1cn2nc(-c3cc(F)c4nn([C@@H]5CCN(C)C[C@H]5F)cc4c3)cc(C)c2n1 [Compound 197, 6-(7-fluoro-2-((3R,4R)-3-fluoro-1-methylpiperidin-4-yl)-2H-indazol-5-yl)-2,8-dimethylimidazo[1,2-b]pyridazine] | 100 to 1000 | 100 to 1000 | 100 to 1000 | 1000 to 10000 | 1000 to 10000 | 1000 to 10000 | 1000 to 10000 | 100 to 1000 | 1000 to 10000 |
| Cc1cn2nc(-c3nc4cn(C5CCNCC5)nc4c(=O)[nH]3)cc(C)c2n1 [Compound 211, 5-(2,8-dimethylimidazo[1,2-b]pyridazin-6-yl)-2-(4-piperidyl)-6H-pyrazolo[4,3-d]pyrimidin-7-one] | < 100 | < 100 | 100 to 1000 | 100 to 1000 | 100 to 1000 | 100 to 1000 |  | < 100 |  |
| Cc1cn2nc(-c3cc(F)c4nn(C5CCNC6(CC6)C5)cc4c3)cc2c(C)n1 (stereo in doubt) [Compound 206, 2-[2-[(7R)-4-azaspiro[2.5]octan-7-yl]-7-fluoro-indazol-5-yl]-4,6-dimethyl-pyrazolo[1,5-a]pyrazine] | < 100 | < 100 | 100 to 1000 | 100 to 1000 | 100 to 1000 | 100 to 1000 | 100 to 1000 | 100 to 1000 | 100 to 1000 |
| CCN1CCC(n2cc3cc(-c4cc(C)c5nc(C)cn5n4)cc(F)c3n2)CC12CCC2 (stereo not drawn) [Compound 198, 6-[2-(5-ethyl-5-azaspiro[3.5]nonan-8-yl)-7-fluoro-indazol-5-yl]-2,8-dimethyl-imidazo[1,2-b]pyridazine] | < 100 | < 100 | < 100 | 100 to 1000 | 100 to 1000 | 100 to 1000 | < 100 | < 100 | 100 to 1000 |
| Cc1cn2nc(-c3cc(C)c4nn(C5CCNC6(CC6)C5)cc4n3)cc(C)c2n1 (stereo not drawn) [Compound 208, 2-(4-azaspiro[2.5]octan-7-yl)-5-(2,8-dimethylimidazo[1,2-b]pyridazin-6-yl)-7-methyl-pyrazolo[4,3-b]pyridine] | > 10000 | > 10000 | > 10000 | > 10000 | > 10000 | > 10000 | > 10000 | 1000 to 10000 |  |
| Cc1cn2nc(-c3cc(F)c4nn([C@@H]5CCN(C)C6(CC6)C5)cc4c3)cc(C)c2n1 [Compound 176, 6-[7-fluoro-2-[(7R)-4-methyl-4-azaspiro[2.5]octan-7-yl]indazol-5-yl]-2,8-dimethyl-imidazo[1,2-b]pyridazine] | < 100 | < 100 | < 100 | 100 to 1000 | 100 to 1000 | 1000 to 10000 | 100 to 1000 |  | 100 to 1000 |
| Cc1cn2nc(-c3cc(F)c4nn([C@H]5CCN(C)C6(CC6)C5)cc4c3)cc(C)c2n1 [Compound 175, 6-[7-fluoro-2-[(7S)-4-methyl-4-azaspiro[2.5]octan-7-yl]indazol-5-yl]-2,8-dimethyl-imidazo[1,2-b]pyridazine] | < 100 | < 100 | < 100 | 100 to 1000 | 100 to 1000 | < 100 | < 100 |  | 100 to 1000 |
